What was measured:
mGluR5 [1] = biological target: T1, mGluR5 (Homo sapiens, UniProt P41594); assay: mGluR5 PAM EC50 (positive allosteric modulator potency); type: cell-based
mGluR5 [2] = biological target: T1, mGluR5; assay: mGluR5 fold shift at a fixed compound concentration; type: cell-based

T1 sequence (P41594 21-1212): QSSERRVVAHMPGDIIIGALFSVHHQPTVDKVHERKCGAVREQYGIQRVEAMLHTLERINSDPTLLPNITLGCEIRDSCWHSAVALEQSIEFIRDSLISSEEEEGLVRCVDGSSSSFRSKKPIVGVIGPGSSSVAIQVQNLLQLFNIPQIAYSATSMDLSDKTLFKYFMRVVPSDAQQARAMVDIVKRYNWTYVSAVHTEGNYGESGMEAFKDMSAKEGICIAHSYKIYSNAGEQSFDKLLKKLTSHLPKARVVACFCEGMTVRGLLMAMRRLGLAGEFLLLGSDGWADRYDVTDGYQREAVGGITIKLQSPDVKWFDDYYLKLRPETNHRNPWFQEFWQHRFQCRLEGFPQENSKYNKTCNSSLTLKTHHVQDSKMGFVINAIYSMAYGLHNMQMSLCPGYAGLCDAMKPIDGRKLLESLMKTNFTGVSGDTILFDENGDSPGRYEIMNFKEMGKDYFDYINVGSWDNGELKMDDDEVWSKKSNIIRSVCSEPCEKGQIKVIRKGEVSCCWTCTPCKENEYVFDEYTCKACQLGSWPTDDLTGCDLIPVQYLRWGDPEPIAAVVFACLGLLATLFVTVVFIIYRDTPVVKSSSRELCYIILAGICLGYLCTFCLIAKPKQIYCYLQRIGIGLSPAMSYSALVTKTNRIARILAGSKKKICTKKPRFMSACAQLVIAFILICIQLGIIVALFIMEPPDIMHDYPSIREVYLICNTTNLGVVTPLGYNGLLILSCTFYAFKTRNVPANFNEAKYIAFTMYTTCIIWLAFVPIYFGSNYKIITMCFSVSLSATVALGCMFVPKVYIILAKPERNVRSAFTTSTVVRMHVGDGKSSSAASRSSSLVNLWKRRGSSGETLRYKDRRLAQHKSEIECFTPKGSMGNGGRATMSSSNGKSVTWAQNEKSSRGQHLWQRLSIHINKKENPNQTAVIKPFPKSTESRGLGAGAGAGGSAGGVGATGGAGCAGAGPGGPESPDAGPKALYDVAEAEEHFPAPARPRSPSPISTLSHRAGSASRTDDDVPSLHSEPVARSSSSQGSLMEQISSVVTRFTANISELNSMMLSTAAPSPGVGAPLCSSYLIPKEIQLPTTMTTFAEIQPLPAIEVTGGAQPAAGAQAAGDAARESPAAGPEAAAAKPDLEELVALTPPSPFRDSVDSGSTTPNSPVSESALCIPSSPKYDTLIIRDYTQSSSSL

Structure (SMILES) | EC50 (mGluR5 [1]) | Fold shift at 1 μM (mGluR5 [2]) | Fold shift at 10 μM (mGluR5 [2])
CC1CCn2c(nc3cc(C#Cc4ccccn4)ccc3c2=O)C1 (single isomer, unassigned) [Example 2.1b] |  | ++ (++ is between 2.0 and 2.9) | 
COC1(C)CCc2nc3cc(C#Cc4ccccn4)ccc3c(=O)n2C1 (single isomer, unassigned) [Example 2.8a] | 100 to 300 nM |  | ++ (++ is between 2.0 and 2.9)
COC1(C)CCc2nc3cc(C#Cc4ccccn4)ccc3c(=O)n2C1 (single isomer, unassigned) [Example 2.8b] | 30 to 100 nM | +++ (+++>3) | 
O=c1c2ccc(C#Cc3ccccn3)cc2nc2n1C1CCC2C1 (single isomer, unassigned) [Example 2.9b] |  | ++ (++ is between 2.0 and 2.9) | 
O=c1c2ccc(C#Cc3ccccn3)cc2nc2n1CCC1CC21 (single isomer, unassigned) [Example 2.10a] | 30 to 100 nM | ++ (++ is between 2.0 and 2.9) | 
CC1(C)CC(F)c2nc3cc(C#Cc4ccccn4)ccc3c(=O)n2C1 (single isomer, unassigned) [Example 2.12b] |  |  | + (+ is between 1.5 and 1.9)
COC1(C)CCc2nc3cc(C#Cc4ccccn4)ccc3c(=O)n2CC1 (single isomer, unassigned) [Example 3.4a] | 30 to 100 nM |  | +++ (+++>3)
COC1(C)CCc2nc3cc(C#Cc4ccccn4)ccc3c(=O)n2CC1 (single isomer, unassigned) [Example 3.4b] |  |  | ++ (++ is between 2.0 and 2.9)
CC1(F)CCc2nc3cc(C#Cc4ccccn4)cnc3c(=O)n2CC1 (single isomer, unassigned) [Example 3.10b] | 30 to 100 nM | +++ (+++>3) | 
CC1Cc2nc3cc(C#Cc4ccccn4)ccc3c(=O)n2CCC1(F)F (single isomer, unassigned) [Example 3.30d] |  |  | + (+ is between 1.5 and 1.9)
CC1(C)Cc2nc3cc(C#Cc4ccccn4)ccc3c(=O)n2O1 [Example 1.15, 2,2-dimethyl-6-(pyridin-2-ylethynyl)-2H-isoxazolo[3,2-b]quinazolin-9(3H)-one] | 30 to 100 nM | + (+ is between 1.5 and 1.9) | 
CCC1(C)Cc2nc3cc(C#Cc4ccccn4)cnc3c(=O)n2C1 (centres unmarked) [Example 1.19, 7-ethyl-7-methyl-3-(pyridin-2-ylethynyl)-7,8-dihydropyrido[3,2-d]pyrrolo[1,2-a]pyrimidin-10(6H)-one] | 30 to 100 nM | ++ (++ is between 2.0 and 2.9) | 
CC1(C)CCc2nc3cc(OCc4ccccn4)ccc3c(=O)n2C1 [Example 4.5, 8,8-dimethyl-3-(pyridin-2-ylmethoxy)-8,9-dihydro-6H-pyrido[2,1-b]quinazolin-11(7H)-one] | 30 to 100 nM |  | 
CC1(C)CCc2nc3cc(NC(=O)c4ccccn4)ccc3c(=O)n2C1 [Example 4.7, N-(8,8-dimethyl-11-oxo-7,8,9,11-tetrahydro-6H-pyrido[2,1-b]quinazolin-3-yl)picolinamide] | 100 to 300 nM |  | 
CC1(C)CCc2nc3cc(C(=O)Nc4ccccn4)ccc3c(=O)n2C1 [Example 4.8, 8,8-dimethyl-11-oxo-N-(pyridin-2-yl)-7,8,9,11-tetrahydro-6H-pyrido[2,1-b]quinazoline-3-carboxamide] | 100 to 300 nM |  | 
CC1(C)Cc2nc3cc(C(=O)Nc4ccccn4)ccc3c(=O)n2C1 [Example 4.17, 2,2-dimethyl-9-oxo-N-(pyridin-2-yl)-1,2,3,9-tetrahydropyrrolo[2,1-b]quinazoline-6-carboxamide] | 300 to 1000 nM |  | 
CC1(C)Cc2nc3cc(NC(=O)c4ccccn4)ccc3c(=O)n2C1 [Example 4.18, N-(2,2-dimethyl-9-oxo-1,2,3,9-tetrahydropyrrolo[2,1-b]quinazolin-6-yl)picolinamide] | 300 to 1000 nM |  | 
O=C(Nc1ccccn1)c1ccc2c(=O)n3c(nc2c1)CCC(F)(F)CC3 [Example 5.4, 8,8-difluoro-12-oxo-N-(pyridin-2-yl)-6,7,8,9,10,12-hexahydroazepino[2,1-b]quinazoline-3-carboxamide] | 300 to 1000 nM |  | 
CC1(C)CCc2nc3cc(Nc4ccccn4)ccc3c(=O)n2C1 [Example 6.2, 8,8-dimethyl-3-(pyridin-2-ylamino)-8,9-dihydro-6H-pyrido[2,1-b]quinazolin-11(7H)-one] | 300 to 1000 nM |  | 
CC1(C)CCc2nc3cc(COc4ccccn4)ccc3c(=O)n2C1 [Example 6.4, 8,8-dimethyl-3-((pyridin-2-yloxy)methyl)-8,9-dihydro-6H-pyrido[2,1-b]quinazolin-11(7H)-one] | 100 to 300 nM |  | 
C/C(=C\c1ccc2c(=O)n3c(nc2c1)CCC(C)(C)C3)c1ccccn1 [Example 6.5, (E)-8,8-dimethyl-3-(2-(pyridin-2-yl)prop-1-en-1-yl)-8,9-dihydro-6H-pyrido[2,1-b]quinazolin-11(7H)-one] | 100 to 300 nM |  | 
CC1(C)CCc2nc3cc(C(=O)Cc4ccccn4)ccc3c(=O)n2C1 [Example 6.7, 8,8-dimethyl-3-(2-(pyridin-2-yl)acetyl)-8,9-dihydro-6H-pyrido[2,1-b]quinazolin-11(7H)-one] | 30 to 100 nM |  | 
CC1(C)CCc2nc3cc(NC(=O)Nc4ccccn4)ccc3c(=O)n2C1 [Example 6.12, 1-(8,8-dimethyl-11-oxo-7,8,9,11-tetrahydro-6H-pyrido[2,1-b]quinazolin-3-yl)-3-(pyridin-2-yl)urea] | 300 to 1000 nM |  | 
CC1(C)CCc2nc3cc(-c4nc(-c5ccccn5)c[nH]4)ccc3c(=O)n2C1 [Example 6.21, 8,8-dimethyl-3-(4-(pyridin-2-yl)-1H-imidazol-2-yl)-8,9-dihydro-6H-pyrido[2,1-b]quinazolin-11(7H)-one] | 300 to 1000 nM |  | 
CC1(C)CCc2nc3cc(-c4ncc(-c5ccccn5)o4)ccc3c(=O)n2C1 [Example 6.25, 8,8-dimethyl-3-(5-(pyridin-2-yl)oxazol-2-yl)-8,9-dihydro-6H-pyrido[2,1-b]quinazolin-11(7H)-one] | 100 to 300 nM |  | 
CC1(C)CCc2nc3cc(-c4cnc(-c5ccccn5)s4)ccc3c(=O)n2C1 [Example 6.28, 8,8-dimethyl-3-(2-(pyridin-2-yl)thiazol-5-yl)-8,9-dihydro-6H-pyrido[2,1-b]quinazolin-11(7H)-one] | 300 to 1000 nM |  | 
CC1(C)CCc2nc3cc(-c4nnc(-c5ccccn5)o4)ccc3c(=O)n2C1 [Example 6.35, 8,8-dimethyl-3-(5-(pyridin-2-yl)-1,3,4-oxadiazol-2-yl)-8,9-dihydro-6H-pyrido[2,1-b]quinazolin-11(7H)-one] | 100 to 300 nM |  | 
CC1(C)CCc2nc3cc(-c4nnc(-c5ccccn5)s4)ccc3c(=O)n2C1 [Example 6.38, 8,8-dimethyl-3-(5-(pyridin-2-yl)-1,3,4-thiadiazol-2-yl)-8,9-dihydro-6H-pyrido[2,1-b]quinazolin-11(7H)-one] | 100 to 300 nM |  | 
CC1(C)CCc2nc3cc(-c4ncc(-c5ccccn5)cn4)ccc3c(=O)n2C1 [Example 6.42, 8,8-dimethyl-3-(5-(pyridin-2-yl)pyrimidin-2-yl)-8,9-dihydro-6H-pyrido[2,1-b]quinazolin-11(7H)-one] | 300 to 1000 nM |  | 

Now from value to compound:

EC50 (mGluR5 [1]) | Fold shift at 1 μM (mGluR5 [2]) | Fold shift at 10 μM (mGluR5 [2]) | Structure (SMILES)
10 to 30 nM | +++ (+++>3) |  | O=c1c2ccc(C#Cc3ccccn3)cc2nc2n1CC(C(F)(F)F)C2 (single isomer, unassigned) [Example 1.8a]
30 to 100 nM | + (+ is between 1.5 and 1.9) |  | O=c1c2ccc(C#Cc3ccccn3)cc2nc2n1CC(C(F)(F)F)C2 (single isomer, unassigned) [Example 1.8b]
10 to 30 nM | + (+ is between 1.5 and 1.9) |  | O=c1c2ccc(C#Cc3ccccn3)cc2nc2n1C1CCC2C1 (single isomer, unassigned) [Example 2.9a]
< 10 nM |  | +++ (+++>3) | CC1(C)CC(F)c2nc3cc(C#Cc4ccccn4)ccc3c(=O)n2C1 (single isomer, unassigned) [Example 2.12a]
10 to 30 nM | ++ (++ is between 2.0 and 2.9) |  | COC1CCc2nc3cc(C#Cc4ccccn4)ccc3c(=O)n2CC1 (single isomer, unassigned) [Example 3.11b]
< 10 nM |  | +++ (+++>3) | CC1CCc2cc3cc(C#Cc4ccccn4)ccc3c(=O)n2CC1 (single isomer, unassigned) [Example 3.20a]
10 to 30 nM |  | +++ (+++>3) | CC1Cc2nc3cc(C#Cc4ccccn4)ccc3c(=O)n2CCC1(F)F (single isomer, unassigned) [Example 3.30c]
10 to 30 nM |  | ++ (++ is between 2.0 and 2.9) | CC1Cn2c(nc3cc(C#Cc4ccccn4)ccc3c2=O)CCC1(F)F (single isomer, unassigned) [Example 3.30f]
10 to 30 nM | +++ (+++>3) |  | COC(C)(C)C1Cc2nc3cc(C#Cc4ccccn4)ccc3c(=O)n2C1 (centres unmarked) [Example 1.4, 2-(2-methoxypropan-2-yl)-6-(pyridin-2-ylethynyl)-2,3-dihydropyrrolo[2,1-b]quinazolin-9(1H)-one]
10 to 30 nM | +++ (+++>3) |  | O=c1c2ccc(C#Cc3ccccn3)cc2nc2n1CC1(CCC1)C2 [Example 1.7, 6′-(pyridin-2-ylethynyl)-1′H-spiro[cyclobutane-1,2′-pyrrolo[2,1-b]quinazolin]-9′(3′H)-one]
10 to 30 nM | +++ (+++>3) |  | CCC1(C)Cc2nc3cc(C#Cc4ccccn4)ccc3c(=O)n2C1 (centres unmarked) [Example 1.10, 2-ethyl-2-methyl-6-(pyridin-2-ylethynyl)-2,3-dihydropyrrolo[2,1-b]quinazolin-9(1H)-one]
10 to 30 nM | +++ (+++>3) |  | CC1(C)COc2nc3cc(C#Cc4ccccn4)ccc3c(=O)n2C1 [Example 2.29, 3,3-dimethyl-9-(pyridin-2-ylethynyl)-3,4-dihydro-[1,3]oxazino[2,3-b]quinazolin-6(2H)-one]
10 to 30 nM | +++ (+++>3) |  | CC1(C)CCc2nc3c(F)c(C#Cc4ccccn4)ccc3c(=O)n2C1 [Example 2.30b, 4-fluoro-8,8-dimethyl-3-(pyridin-2-ylethynyl)-8,9-dihydro-6H-pyrido[2,1-b]quinazolin-11(7H)-one]
